Data reported in a melting point compilation (Tetko et al.; mined from patent text by program, amines drawn as free bases though some values may be those of a salt).

Row | melting point [°C] | SMILES
1 | 132 | CN(C(=O)[C@H]1CC[C@@H](c2ccccc2)N1C(=O)OC(C)(C)C)c1ccccc1 (racemic)
2 | > 330 | COc1cc(O)nc2cc(-c3cc(C)c(O)c(C)c3)[nH]c(=O)c12
3 | 117 to 119 | CCOc1ccc(OCC(=O)OC(C)(C)C)c2c1C(=O)N(CCl)S2(=O)=O
4 | 259 to 262 | CCOC(=O)C1=C(C)Nc2n[nH]cc2C1c1ccccc1C(F)(F)F (centres undefined)
5 | 110 to 112 | N#Cc1cc(N)ccc1N1CCC(N2CCCCC2)CC1
6 | 113 to 115 | CC(C)(C)OCCCC1(O)c2ccccc2COc2ccccc21 (centres undefined)
7 | 54 to 56.5 | CNc1ccc2cccc(OCCOc3nccnc3N3CCNCC3)c2n1
8 | 150 to 152 | COC(=O)c1ccccc1-n1c(CCl)nc2cc(Cl)ccc2c1=O
9 | 177 to 178 | NS(=O)(=O)c1ccc(N2CCN(CCCC3OCCc4ccccc43)CC2)cc1 (racemic)
10 | 140 to 142 | CCOc1ccc(-c2ccc3c(c2)C=C(C(=O)OC(C)(C)C)CCN3C)cc1
11 | 108 to 110 | CCOC(=O)CNC(=O)c1cc(Cl)ccc1N
12 | 203 to 205 | CCOC(=O)c1cn(-c2ccc(F)cn2)c2c(F)c(F)c(F)cc2c1=O
13 | 234 to 238 | CC1COc2c(OC3CCN(C)CC3)c(F)cc3c(=O)c(C(=O)O)cn1c23 (centres undefined)
14 | 90 to 92 | N#Cc1cc2ccc(OCC3CO3)cc2o1 (centres undefined)
15 | 74 to 75 | CCOC(=O)c1cc2cc(OCOC)ccc2s1
16 | 145 to 146 | CSc1ccc(-c2nnc(Cl)cc2-c2ccc(Cl)cc2)cc1
17 | 165 to 167 | O=C(O)C1CCCCC1(O)C(=O)c1ccccc1 (centres undefined)
18 | 104 to 107 | COc1cc(N)c(Cl)cc1C(=O)NCC1CCN(CCCCN)CC1

Row | melting point [°C] | SMILES
19 | 137 to 139 | CSC(SC)=C(C(=O)c1ccc(C(F)(F)F)cc1S(C)(=O)=O)C(=O)C1CC1
20 | 112 to 114 | O=C1c2ccccc2C(=O)N1[C@@H]1C=CCC[C@@H]1O (racemic)
21 | 213 to 214 | CC(=O)NCC1CN(c2ccc(N3CCN(c4nc5ccc(F)c(F)c5o4)CC3)c(F)c2)C(=O)O1 (centres undefined)
22 | 142 to 143 | Cc1ccc(CCN(C)CCCCCC2Cc3cc(O)ccc3C3C(F)CC4(C)C(O)CCC4C23)cc1 (centres undefined)
23 | 175 to 176 | Cc1cc(O)c2c(C)nn(-c3ccccn3)c2n1
24 | 228 to 232 | CC(C)Cn1cnc2c(N)nc3ccc(-n4cccc4)cc3c21
25 | 71 to 72 | COC(=O)Nc1ccc(Br)c(C)c1
26 | 157 to 160 | O=c1oc(-c2ccccc2)cc(O)c1C(CC1CCCC1)SC1CCCCC1 (centres undefined)
27 | 180 to 189 | CSc1ccc2c(c1)C(O)(C1CCN(C)CC1)c1ccc(F)cc1S2 (centres undefined)
28 | 129 to 132 | Cn1nc(-c2ccc(F)cc2)c(-c2ccncc2)c1CCCc1ccc([N+](=O)[O-])cc1
29 | 107 to 109 | CC(=O)N1[C@@H](C)[C@@H]2C(=O)N(Cc3ccccc3)C(=O)[C@@H]2[C@@H]1c1ccc(C#N)cc1 (racemic)
30 | > 280 | O=C(O)c1ccc2nc(-n3nc4c(c3O)-c3ccccc3CC4)sc2c1
31 | 294 | Cc1ccc(OC2CCN(C(=O)C(=O)Nc3ccc4[nH]c(=O)[nH]c4c3)CC2)cc1
32 | 185 to 187 | CC1(C)CCCc2ccc(CC#Cc3ccc(C(=O)O)c(O)c3)cc21
33 | 167 to 169 | CCN(C)c1nc2cc(NC(=O)c3c(C(=O)N4CCOCC4)cnn3C)ccn2n1
34 | 120 to 123 | Cc1cc(C2=C(C=CC3CC(O)CC(=O)O3)C(C)(C)CC(N3CCCC3)C2)ccc1F (centres undefined)
35 | 111 to 113 | COc1cc(OC)c2c(c1)OC(C)(C)CC2NNc1ncnc2c1ncn2C1OC(CO)C(O)C1O (centres undefined)
36 | 142 to 144 | CCCCNC(=O)C1=C(C(=O)Nc2cc(OC3CCCC3)c(Cl)cc2F)CCCC1

More lines, now with the values behind:

Row | SMILES | melting point [°C]
37 | COc1ccc(C=Cc2cc(Br)c(OC)c(OC)c2)cc1O | 108 to 109
38 | NC(=O)NC1(C(=O)O)CCCc2ncc(Cl)cc21 (centres undefined) | 188 to 190
39 | CCNc1c(C(=O)OCC)c(C)nc(Cl)c1[N+](=O)[O-] | 36 to 37
40 | CN(C(=O)C1CC1)c1cccc(-c2ccnc3c(C(=O)c4ccco4)cnn23)c1 | 207 to 209
41 | CSc1ncc(CCc2cccnc2)c(=O)[nH]1 | 191 to 192
42 | COc1ccc(/C=C/c2ncccc2C(=O)O)cc1 | 230 to 233
43 | CCCCc1cc(C(=O)OC)c(N)s1 | 62 to 63
44 | CCCCCCCCCCOc1ccc(-c2ccc(OCc3ccccc3)c(F)c2)cc1F | 95.8 to 98.6
45 | O=C(O)c1cc(COc2ccccc2)cc(Cn2cc(C3c4ccccc4C=Cc4ccccc43)c(=S)[nH]c2=O)c1 | 160 to 165
46 | O=CN(O)C(CCCO)CS(=O)(=O)c1ccc(-c2ccc(Cl)cc2)cc1 (centres undefined) | 160
47 | CC(C)(C)C(=O)Oc1ccc(CNC(=O)c2cccnc2Oc2ccc(F)cc2)cc1 | 91 to 93
48 | OC(CCN1CC=C(c2ccc(Cl)cc2)CC1)c1ccc(F)cc1 (centres undefined) | 130 to 132
49 | CCOC(=O)CSc1nc(=O)[nH]cc1F | 156
50 | Cc1cnc(-c2ccncc2)nc1N | 210 to 213
51 | CCc1sc2ncnc(N)c2c1-c1ccc(NS(=O)(=O)c2ccccc2)cc1 | 209 to 210
52 | C=CC1(COC(C)=O)OC(OC2C(COCc3ccccc3)OC(OC)C(OCc3ccccc3)C2OCc2ccccc2)C(OC(C)=O)C(OC)C1OC(C)=O (centres undefined) | 47
53 | O=C(Nc1cc(-c2ccnc3c(C(=O)c4cccs4)cnn23)ccc1Cl)c1ccccc1 | 217 to 218

Row | SMILES | melting point [°C]
54 | Cc1nc2c(n1-c1ccccc1)C(=O)c1ccccc1C2=O | 242
55 | CC(=O)OC(CF)c1sccc1S(N)(=O)=O (centres undefined) | 97 to 98
56 | CCCCCCCCCOc1ccc(Cl)c(C(N)=O)c1F | 75 to 77
57 | O=C(NO)c1ccc(CNC(=O)c2[nH]c(-c3ccc(O)cc3)cc2-c2ccsc2)cc1 | 121 to 122
58 | CN(CCNCc1ccccc1)Cc1ccccc1 | 83 to 84
59 | Oc1cccc(-c2nc(-c3cccnc3)no2)c1 | > 200
60 | CC(=O)N(C)c1cc(Br)cc(S(=O)(=O)c2ccccc2)c1 | 147 to 148
61 | Cc1cc(OCc2ccc(-c3ccccc3-c3nnn(C(c4ccccc4)(c4ccccc4)c4ccccc4)n3)cc2)c(-c2cncnc2)c(C)n1 | 171 to 172
62 | CCC(=O)N1N=C(c2ccc([N+](=O)[O-])cc2)c2cc(Cl)ccc2CC1C (centres undefined) | 160 to 161
63 | CNC(=O)c1cccc(NC(=O)CCc2ccc(O)cc2)c1 | 158
64 | Nc1nc(N)c2ncn(/C=C3/CC3(CO)CO)c2n1 | 219 to 220
65 | CCCc1ccc(Br)nn1 | 35 to 36
66 | Cc1cc(C)cc(-c2nnc(C#N)o2)c1 | 127
67 | CCCc1nn2ncc(C(=O)OCC)c2n1Cc1ccc(-c2ccccc2-c2nnnn2C(c2ccccc2)(c2ccccc2)c2ccccc2)cc1 | 106 to 108
68 | CCCc1c(OCCCCCOc2ccccc2CCCC(=O)O)ccc2c1OCCC2=O | 116 to 118
69 | CC(C)(C)c1cc(C(=O)COc2ccc(Cl)cc2Oc2ccc(Cl)cc2Cl)cc(C(C)(C)C)c1O | 111 to 114
